Reference: paper PMC9586930, “Molecular insights into the distinct signaling duration for the peptide-induced PTH1R activation” (Nature Communications, 2022)

Experiments:
Settings in all cases: for ΔpEC50±SEM: relative to WT, n = 3 in triplicate; for ΔpEC50±SEM / Span±SEM: mean ± SEM; for Span±SEM: window between maximal response (Emax) and vehicle, n = 3
PTH1R T178A mutant = system: T1, PTH1R T178A mutant; test: cAMP accumulation assay (GloSensor), PTH1R T178A; assay type: cell-based, human
T1 construct: a flag-tag was fused to the N terminal of full-length PTH1R (WT or mutant); expressed in transfected cells; host or cells: HEK293T
Description: (§1) After 24 h, transfected cells were plated onto a 384-well plate, which was treated with cell adherent reagent (Applygen) in advance. After another 12 h, cells were treated with Hank’s balanced salt solution for starvation and then incubated in CO2-independent media containing 4% GloSensor cAMP Reagent (Promega) at a volume of 5 μl per well and incubated for 20 min at RT before measurements for baseline luminescence (Spark Multimode microplate reader, TECAN). Next, test ligands were added at different concentrations from 10^−6 to 10^−13 M before second measurement. Finally, data were normalized to 100% of the maximal PTH (1-34) response for WT PTH1R using a sigmoidal dose-response in GraphPad Prism.
(§2) Statistical analyses were performed on at least three individual datasets and analysed using GraphPad Prism software. […] Data are mean± s.e.m. from at least three independent experiments, performed in triplicates. ns, not significant, ^nsP > 0.01; ^*P < 0.01; ^**P < 0.001; ^***P < 0.0001 (one-way analysis of variance (ANOVA) followed by Dunnett’s test, compared with the response of the WT). For dose-response experiments, data were normalized and analyzed using nonlinear curve fitting for the log (agonist) versus response (three parameters) curves.

PTH1R E180A mutant = biological target: T2, PTH1R E180A mutant (Homo sapiens, UniProt Q03431, E180A); test: cAMP accumulation assay (GloSensor), PTH1R E180A; assay type: cell-based
T2 construct: a flag-tag was fused to the N terminal of full-length PTH1R (WT or mutant); expressed in transfected cells; host or cells: HEK293T
T2 sequence (Q03431 27-593 E180A): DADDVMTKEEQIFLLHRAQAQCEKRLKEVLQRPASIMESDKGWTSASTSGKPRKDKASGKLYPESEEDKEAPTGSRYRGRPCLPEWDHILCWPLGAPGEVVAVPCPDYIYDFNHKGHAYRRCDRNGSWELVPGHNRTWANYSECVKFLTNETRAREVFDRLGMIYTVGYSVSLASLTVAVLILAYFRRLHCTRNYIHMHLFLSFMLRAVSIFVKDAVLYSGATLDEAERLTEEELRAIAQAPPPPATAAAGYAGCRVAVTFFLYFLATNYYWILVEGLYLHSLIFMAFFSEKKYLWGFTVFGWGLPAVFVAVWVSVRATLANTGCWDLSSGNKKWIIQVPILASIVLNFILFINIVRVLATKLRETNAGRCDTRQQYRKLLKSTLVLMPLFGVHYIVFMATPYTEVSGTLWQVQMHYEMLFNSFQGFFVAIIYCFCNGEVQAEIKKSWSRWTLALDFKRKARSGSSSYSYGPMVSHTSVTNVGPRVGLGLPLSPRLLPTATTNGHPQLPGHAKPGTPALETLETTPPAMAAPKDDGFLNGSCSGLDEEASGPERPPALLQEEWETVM
Description: as §1, with “Human embryonic kidney 293 T (HEK293T, ATCC: CRL-1573) cells were transfected with a plasmid mixture consisting of pcDNA3.1-flag-PTH1R (WT or mutants) and the cAMP biosensor GloSensor-22F (Promega) at a ratio of 2:1 (see Supplementary Table 7 for a list of primers used in this study). After 24” for “After 24”
Statistical analyses were performed on at least three individual datasets and analysed using GraphPad Prism software. Bars represent differences in the calculated agonist potency (pEC50) and maximum agonist response (Emax) for each mutant relative to the WT receptor. Data are mean± s.e.m. from at least three independent experiments, performed in triplicates. ns, not significant, ^nsP > 0.01; ^*P < 0.01; ^**P < 0.001; ^***P < 0.0001 (one-way analysis of variance (ANOVA) followed by Dunnett’s test, compared with the response of the WT). For dose-response experiments, data were normalized and analyzed using nonlinear curve fitting for the log (agonist) versus response (three parameters) curves.

PTH1R F424A mutant = test: cAMP accumulation assay (GloSensor), PTH1R F424A; assay type: cell-based, human
Description: as §1, §2

Row | span (from the WT) (PTH1R E180A mutant; PTH1R E1801.32A, replicate 1) | ΔpEC50 (from the WT) (PTH1R E180A mutant; PTH1R E1801.32A, replicate 1) | span (from the WT) (PTH1R E180A mutant; PTH1R E1801.32A, replicate 2) | ΔpEC50 (from the WT) (PTH1R E180A mutant; PTH1R E1801.32A, replicate 2) | span (from the WT) (PTH1R E180A mutant; PTH1R E1801.32A, replicate 3) | ΔpEC50 (from the WT) (PTH1R E180A mutant; PTH1R E1801.32A, replicate 3) | ΔpEC50±SEM (PTH1R E180A mutant) | ΔpEC50 (from the WT) (PTH1R E180A mutant; replicate 1) | ΔpEC50 (from the WT) (PTH1R E180A mutant; replicate 2) | Substance | span (from the WT) (PTH1R T178A mutant; PTH1R T1781.30A, replicate 1) | ΔpEC50 (from the WT) (PTH1R T178A mutant; PTH1R T1781.30A, replicate 1) | span (from the WT) (PTH1R T178A mutant; PTH1R T1781.30A, replicate 2) | ΔpEC50 (from the WT) (PTH1R T178A mutant; PTH1R T1781.30A, replicate 2) | span (from the WT) (PTH1R T178A mutant; PTH1R T1781.30A, replicate 3) | ΔpEC50 (from the WT) (PTH1R T178A mutant; PTH1R T1781.30A, replicate 3) | ΔpEC50±SEM (PTH1R T178A mutant) | ΔpEC50 (from the WT) (PTH1R T178A mutant; replicate 1) | ΔpEC50 (from the WT) (PTH1R T178A mutant; replicate 2) | ΔpEC50 (from the WT) (PTH1R T178A mutant; replicate 3) | Span±SEM (PTH1R T178A mutant) | other results
1 | 111 | -0.03 | 162.5 | 0.025 | 202.3 | 0.095 | 0.03±0.04 | -0.03 | 0.025 | H-AVAEIQLMHQRAKWIQDARRRAFLHKLIAEIHTAEI-OH [LA-PTH, long-acting PTH analog, modified PTH/PTHrP hybrid] | 104.1 | -0.079 | 116.4 | 0 | 180.3 | -0.07 | -0.05±0.02 | -0.079 | 0 | -0.07 | 133.60±23.62 | ΔpEC50 (from the WT) (PTH1R E180A mutant; replicate 3): 0.095; Span±SEM (PTH1R E180A mutant): 158.60±26.43; span (from the WT) (PTH1R F424A mutant; PTH1R F4246.56A, replicate 1): 141.3; ΔpEC50 (from the WT) (PTH1R F424A mutant; PTH1R F4246.56A, replicate 1): -1.04; span (from the WT) (PTH1R F424A mutant; PTH1R F4246.56A, replicate 2): 117.4; ΔpEC50 (from the WT) (PTH1R F424A mutant; PTH1R F4246.56A, replicate 2): -1.083; span (from the WT) (PTH1R F424A mutant; PTH1R F4246.56A, replicate 3): 173.2; ΔpEC50 (from the WT) (PTH1R F424A mutant; PTH1R F4246.56A, replicate 3): -1.36; ΔpEC50±SEM (PTH1R F424A mutant): -1.16±0.1; ΔpEC50 (from the WT) (PTH1R F424A mutant; replicate 1): -1.04; ΔpEC50 (from the WT) (PTH1R F424A mutant; replicate 2): -1.083; ΔpEC50 (from the WT) (PTH1R F424A mutant; replicate 3): -1.36
2 | 108.2 | -0.151 | 115.5 | -0.207 | 203.5 | 0.036 | -0.11±0.07 | -0.151 | -0.207 | H-SVSEIQLMHNLGKHLNSMERVEWLRKKLQDVHNF-OH [PTH, Teriparatide, human PTH 1-34, long-acting peptide agonist of PTH1R] | 113.4 | -0.148 | 160.5 | -0.301 | 167.8 | -0.188 | -0.21±0.05 | -0.148 | -0.301 | -0.188 | 147.23±17.05 | ΔpEC50 (from the WT) (PTH1R E180A mutant; replicate 3): 0.036; Span±SEM (PTH1R E180A mutant): 193.57±39.96; span (from the WT) (PTH1R F424A mutant; PTH1R F4246.56A, replicate 1): 181.9; ΔpEC50 (from the WT) (PTH1R F424A mutant; PTH1R F4246.56A, replicate 1): -1.332; span (from the WT) (PTH1R F424A mutant; PTH1R F4246.56A, replicate 2): 192.6; ΔpEC50 (from the WT) (PTH1R F424A mutant; PTH1R F4246.56A, replicate 2): -1.492; span (from the WT) (PTH1R F424A mutant; PTH1R F4246.56A, replicate 3): 166.2; ΔpEC50 (from the WT) (PTH1R F424A mutant; PTH1R F4246.56A, replicate 3): -1.466; ΔpEC50±SEM (PTH1R F424A mutant): -1.43±0.05; ΔpEC50 (from the WT) (PTH1R F424A mutant; replicate 1): -1.332; ΔpEC50 (from the WT) (PTH1R F424A mutant; replicate 2): -1.492; ΔpEC50 (from the WT) (PTH1R F424A mutant; replicate 3): -1.466; Span±SEM (PTH1R F424A mutant): 143.97±16.16

Row | Substance | span (from the WT) (PTH1R E180A mutant; PTH1R E1801.32A, replicate 1) | ΔpEC50 (from the WT) (PTH1R E180A mutant; PTH1R E1801.32A, replicate 1) | span (from the WT) (PTH1R E180A mutant; PTH1R E1801.32A, replicate 2) | ΔpEC50 (from the WT) (PTH1R E180A mutant; PTH1R E1801.32A, replicate 2) | span (from the WT) (PTH1R E180A mutant; PTH1R E1801.32A, replicate 3) | ΔpEC50 (from the WT) (PTH1R E180A mutant; PTH1R E1801.32A, replicate 3) | ΔpEC50±SEM (PTH1R E180A mutant) | ΔpEC50 (from the WT) (PTH1R E180A mutant; replicate 1) | ΔpEC50 (from the WT) (PTH1R E180A mutant; replicate 2) | span (from the WT) (PTH1R T178A mutant; PTH1R T1781.30A, replicate 1) | ΔpEC50 (from the WT) (PTH1R T178A mutant; PTH1R T1781.30A, replicate 1) | span (from the WT) (PTH1R T178A mutant; PTH1R T1781.30A, replicate 2) | ΔpEC50 (from the WT) (PTH1R T178A mutant; PTH1R T1781.30A, replicate 2) | span (from the WT) (PTH1R T178A mutant; PTH1R T1781.30A, replicate 3) | ΔpEC50 (from the WT) (PTH1R T178A mutant; PTH1R T1781.30A, replicate 3) | ΔpEC50±SEM (PTH1R T178A mutant) | ΔpEC50 (from the WT) (PTH1R T178A mutant; replicate 1) | ΔpEC50 (from the WT) (PTH1R T178A mutant; replicate 2) | ΔpEC50 (from the WT) (PTH1R T178A mutant; replicate 3) | Span±SEM (PTH1R T178A mutant) | other results
3 | H-AVSEHQLLHDKGKSIQDLRRRELLEKLL-{Aib}-KLHTA-NH2 [ABL, Abaloparatide, an analog of PTHrP, short-acting PTH1R agonist] | 108.1 | -0.513 | 146.6 | -0.61 | 148 | -0.513 | -0.55±0.03 | -0.513 | -0.61 | 120.4 | -0.829 | 180.3 | -0.74 | 96.78 | -0.62 | -0.73±0.06 | -0.829 | -0.74 | -0.62 | 132.49±24.86 | ΔpEC50 (from the WT) (PTH1R E180A mutant; replicate 3): -0.513; Span±SEM (PTH1R E180A mutant): 134.23±13.07; span (from the WT) (PTH1R F424A mutant; PTH1R F4246.56A, replicate 1): 148.5; ΔpEC50 (from the WT) (PTH1R F424A mutant; PTH1R F4246.56A, replicate 1): -1.943; span (from the WT) (PTH1R F424A mutant; PTH1R F4246.56A, replicate 2): 140.3; ΔpEC50 (from the WT) (PTH1R F424A mutant; PTH1R F4246.56A, replicate 2): -2.006; span (from the WT) (PTH1R F424A mutant; PTH1R F4246.56A, replicate 3): 170.8; ΔpEC50 (from the WT) (PTH1R F424A mutant; PTH1R F4246.56A, replicate 3): -2.077; ΔpEC50±SEM (PTH1R F424A mutant): -2.01±0.04; ΔpEC50 (from the WT) (PTH1R F424A mutant; replicate 1): -1.943; ΔpEC50 (from the WT) (PTH1R F424A mutant; replicate 2): -2.006; ΔpEC50 (from the WT) (PTH1R F424A mutant; replicate 3): -2.077; Span±SEM (PTH1R F424A mutant): 153.20±9.11
